Results: the NIST ThermoML archive (doi:10.1016/j.jct.2006.04.005)

Tests used:
[1] = 303.15 K, 101 kPa, Liquid; for viscosity: Capillary tube (Ostwald / Ubbelohde) method; for mass density: Pycnometric method
[2] = xn = mol fraction of the nth substance listed; conditions: 303.15 K, 101 kPa, Liquid; for viscosity: Capillary tube (Ostwald / Ubbelohde) method; for excess molar volume: Direct dilatometry; for mass density: Pycnometric method

Cc1ccc(Cl)cc1 [4-chlorotoluene]
[1]
Conditions	mass density [kg/m3]	speed of sound [m/s]	viscosity [mPa·s]
–	1060.54	1271	0.9

Clc1ccccc1Cl [1,2-dichlorobenzene]
[1]
Conditions	mass density [kg/m3]	speed of sound [m/s]	viscosity [mPa·s]
–	1299.24	1261	1.302

Clc1ccc(Cl)c(Cl)c1 [1,2,4-trichlorobenzene]
[1]
Conditions	mass density [kg/m3]	speed of sound [m/s]	viscosity [mPa·s]
–	1442.14	1260	1.613

Clc1cccc(Cl)c1 [1,3-dichlorobenzene]
[1]
Conditions	mass density [kg/m3]	speed of sound [m/s]	viscosity [mPa·s]
–	1277.12	1242	1.025

Clc1ccccc1Cl [1,2-dichlorobenzene] + C[S+](C)[O-]
[2]
Conditions	excess molar volume [m3/mol]	mass density [kg/m3]	speed of sound [m/s]	viscosity [mPa·s]
x2 = 0	–	1299.24	1261	1.302
x2 = 0.104	2.3e-08	–	1264	1.379
x2 = 0.1511	3.3e-08	–	1268	1.409
x2 = 0.2041	4e-08	–	1274	1.443
x2 = 0.2506	4.7e-08	–	1279	1.472
x2 = 0.301	5.3e-08	–	1284	1.502
x2 = 0.4025	6e-08	–	1303	1.56
x2 = 0.4511	6.3e-08	–	1312	1.587
x2 = 0.521	6.5e-08	–	1329	1.623
x2 = 0.6511	5.8e-08	–	1367	1.686
x2 = 0.7221	5.3e-08	–	1394	1.719
x2 = 0.7519	4.9e-08	–	1403	1.73
x2 = 0.8002	4e-08	–	1417	1.751
x2 = 0.8514	3.5e-08	–	1435	1.766
x2 = 0.9019	2.3e-08	–	1446	1.782
x2 = 0.9405	1.3e-08	–	1457	1.782

C[S+](C)[O-] [dimethyl sulfoxide] + Cc1ccc(Cl)cc1
[2], x1 = 1
Conditions	mass density [kg/m3]	speed of sound [m/s]	viscosity [mPa·s]
–	1091.35	1470	1.803

C[S+](C)[O-] [dimethyl sulfoxide] + Clc1cccc(Cl)c1
[2], x1 = 1
Conditions	mass density [kg/m3]	speed of sound [m/s]
–	1091.35	1470

C[S+](C)[O-] [dimethyl sulfoxide] + Clc1ccc(Cl)c(Cl)c1
[2], x1 = 1
Conditions	mass density [kg/m3]	speed of sound [m/s]
–	1091.35	1470

Cc1cccc(Cl)c1 [3-chlorotoluene] + C[S+](C)[O-]
[2]
Conditions	excess molar volume [m3/mol]	mass density [kg/m3]	speed of sound [m/s]	viscosity [mPa·s]
x2 = 0	–	1065.21	1280	0.78
x2 = 0.0868	1.2e-08	–	1300	1.02
x2 = 0.1205	1.7e-08	–	1308	1.073
x2 = 0.1911	2.8e-08	–	1324	1.164
x2 = 0.2207	3.1e-08	–	–	1.203
x2 = 0.261	3.7e-08	–	1342	1.249
x2 = 0.3125	4.1e-08	–	1356	1.305
x2 = 0.3829	4.7e-08	–	1372	1.38
x2 = 0.4156	4.9e-08	–	1382	1.415
x2 = 0.502	5.2e-08	–	1404	1.503
x2 = 0.5419	5e-08	–	1412	1.541
x2 = 0.6205	4.7e-08	–	1429	1.602
x2 = 0.7125	3.7e-08	–	1450	1.674
x2 = 0.7517	3.3e-08	–	1457	1.704
x2 = 0.824	2.5e-08	–	1468	1.735
x2 = 0.9246	1.3e-08	–	1469	1.783

Cc1ccccc1Cl [2-chlorotoluene] + C[S+](C)[O-]
[2]
Conditions	excess molar volume [m3/mol]	mass density [kg/m3]	speed of sound [m/s]	viscosity [mPa·s]
x2 = 0	–	1072.81	1284	0.887
x2 = 0.104	1.1e-08	–	1303	1.013
x2 = 0.1845	2.1e-08	–	1324	1.123
x2 = 0.2141	2.5e-08	–	1330	1.16
x2 = 0.2552	2.9e-08	–	1343	1.209
x2 = 0.3075	3.3e-08	–	1352	1.266
x2 = 0.376	3.9e-08	–	1369	1.342
x2 = 0.4079	4.2e-08	–	1377	1.375
x2 = 0.5224	4.6e-08	–	1403	1.49
x2 = 0.551	4.5e-08	–	1410	1.518
x2 = 0.6005	4.2e-08	–	1422	1.564
x2 = 0.7241	3.1e-08	–	1446	1.667
x2 = 0.761	2.7e-08	–	1450	1.69
x2 = 0.8011	2.3e-08	–	1460	1.724
x2 = 0.8711	1.6e-08	–	1464	1.773

Cc1ccccc1[N+](=O)[O-] [2-nitrotoluene] + C[S+](C)[O-]
[2]
Conditions	excess molar volume [m3/mol]	mass density [kg/m3]	speed of sound [m/s]	viscosity [mPa·s]
x2 = 0	–	1153.24	–	1.911
x2 = 0.0815	2.3e-08	–	2039	1.903
x2 = 0.1525	5.4e-08	–	1986	1.896
x2 = 0.2422	9.3e-08	–	1922	1.888
x2 = 0.2913	1.13e-07	–	1888	1.883
x2 = 0.3415	1.28e-07	–	1849	1.878
x2 = 0.4026	1.45e-07	–	1807	1.872
x2 = 0.4505	1.55e-07	–	1773	1.867
x2 = 0.5119	1.58e-07	–	1731	1.861
x2 = 0.5523	1.59e-07	–	1704	1.857
x2 = 0.602	1.54e-07	–	1674	1.852
x2 = 0.6521	1.43e-07	–	1645	1.847
x2 = 0.7122	1.25e-07	–	1612	1.841
x2 = 0.7516	1.13e-07	–	1591	1.836
x2 = 0.8115	8.5e-08	–	1564	1.829
x2 = 0.9227	3.5e-08	–	1508	1.814

Cc1cccc([N+](=O)[O-])c1 [3-nitrotoluene] + C[S+](C)[O-]
[2]
Conditions	excess molar volume [m3/mol]	mass density [kg/m3]	speed of sound [m/s]	viscosity [mPa·s]
x2 = 0	–	1147.67	–	1.777
x2 = 0.1052	3.9e-08	–	2002	1.78
x2 = 0.1512	6e-08	–	1964	1.781
x2 = 0.1921	7.9e-08	–	1936	1.782
x2 = 0.2216	9.2e-08	–	1909	1.783
x2 = 0.272	1.14e-07	–	1876	1.784
x2 = 0.305	1.28e-07	–	1851	1.785
x2 = 0.3641	1.52e-07	–	1812	1.786
x2 = 0.4121	1.62e-07	–	1778	1.787
x2 = 0.4772	1.77e-07	–	–	1.789
x2 = 0.5226	1.83e-07	–	1711	1.79
x2 = 0.6035	1.75e-07	–	1661	1.792
x2 = 0.724	1.46e-07	–	1598	1.794
x2 = 0.8126	1.07e-07	–	1555	1.796
x2 = 0.8905	6.2e-08	–	1518	1.799
x2 = 0.9607	2.5e-08	–	1489	1.801

Clc1cccc(Cl)c1 [1,3-dichlorobenzene] + C[S+](C)[O-]
[2]
Conditions	excess molar volume [m3/mol]	mass density [kg/m3]	speed of sound [m/s]	viscosity [mPa·s]
x2 = 0	–	1277.12	1242	1.025
x2 = 0.0801	1.6e-08	–	1244	1.107
x2 = 0.1124	2.2e-08	–	1248	1.14
x2 = 0.1506	2.7e-08	–	1253	1.181
x2 = 0.2075	3.5e-08	–	1256	1.232
x2 = 0.2511	4e-08	–	1268	1.273
x2 = 0.3162	4.5e-08	–	1387	1.329
x2 = 0.4219	5.3e-08	–	1395	1.419
x2 = 0.4507	5.5e-08	–	1305	1.445
x2 = 0.5005	5.6e-08	–	1345	1.487
x2 = 0.6224	5.4e-08	–	1370	1.586
x2 = 0.6819	5e-08	–	1399	1.632
x2 = 0.7517	4.3e-08	–	1416	1.68
x2 = 0.8015	3.5e-08	–	1431	1.715
x2 = 0.852	2.7e-08	–	1455	1.742
x2 = 0.9221	1.7e-08	–	1467	1.778

C[S+](C)[O-] [dimethyl sulfoxide] + Cc1cccc(Cl)c1
[2], x1 = 1
Conditions	mass density [kg/m3]	speed of sound [m/s]	viscosity [mPa·s]
–	1091.35	1470	1.803

C[S+](C)[O-] [dimethyl sulfoxide] + Cc1cccc([N+](=O)[O-])c1
[2], x1 = 1
Conditions	mass density [kg/m3]	speed of sound [m/s]
–	1091.35	1470

Clc1ccc(Cl)c(Cl)c1 [1,2,4-trichlorobenzene] + C[S+](C)[O-]
[2]
Conditions	excess molar volume [m3/mol]	mass density [kg/m3]	speed of sound [m/s]	viscosity [mPa·s]
x2 = 0	–	1442.14	1260	1.613
x2 = 0.0911	1.2e-08	–	1253	1.647
x2 = 0.1214	1.6e-08	–	1252	1.658
x2 = 0.1805	2.3e-08	–	1257	1.677
x2 = 0.2144	2.7e-08	–	1259	1.688
x2 = 0.251	3.2e-08	–	1264	1.699
x2 = 0.3225	3.9e-08	–	1274	1.719
x2 = 0.4115	4.6e-08	–	1285	1.742
x2 = 0.467	4.8e-08	–	1296	1.755
x2 = 0.5001	5e-08	–	1302	1.763
x2 = 0.5524	4.8e-08	–	1316	1.773
x2 = 0.6207	4.7e-08	–	1339	1.786
x2 = 0.7005	4e-08	–	1379	1.796
x2 = 0.7829	3e-08	–	1415	1.801
x2 = 0.8014	2.8e-08	–	1423	1.802
x2 = 0.9228	1.2e-08	–	1459	1.803

Cc1ccc(Cl)cc1 [4-chlorotoluene] + C[S+](C)[O-]
[2]
Conditions	excess molar volume [m3/mol]	mass density [kg/m3]	speed of sound [m/s]	viscosity [mPa·s]
x2 = 0	–	1060.54	1271	0.9
x2 = 0.0768	1.3e-08	–	1292	1.039
x2 = 0.1105	2.3e-08	–	1302	1.094
x2 = 0.1546	2.9e-08	–	1312	1.16
x2 = 0.2045	3.5e-08	–	1327	1.232
x2 = 0.2543	4.1e-08	–	1340	1.287
x2 = 0.3111	4.8e-08	–	1357	1.351
x2 = 0.3704	5.2e-08	–	1372	1.41
x2 = 0.4904	5.7e-08	–	1401	1.521
x2 = 0.5174	5.7e-08	–	1410	1.544
x2 = 0.554	5.6e-08	–	1418	1.573
x2 = 0.6014	5.3e-08	–	1430	1.611
x2 = 0.7074	4.5e-08	–	1453	1.687
x2 = 0.761	3.8e-08	–	1465	1.725
x2 = 0.8214	3.2e-08	–	1467	1.76
x2 = 0.8906	2e-08	–	1468	1.78

C[S+](C)[O-] [dimethyl sulfoxide] + Clc1ccccc1Cl
[2], x1 = 1
Conditions	mass density [kg/m3]	speed of sound [m/s]	viscosity [mPa·s]
–	1091.35	1470	1.803

C[S+](C)[O-] [dimethyl sulfoxide] + Cc1ccccc1Cl
[2], x1 = 1
Conditions	mass density [kg/m3]	speed of sound [m/s]
–	1091.35	1470

C[S+](C)[O-] [dimethyl sulfoxide] + Cc1ccccc1[N+](=O)[O-]
[2], x1 = 1
Conditions	mass density [kg/m3]	speed of sound [m/s]	viscosity [mPa·s]
–	1091.35	1470	1.803
